Experimental data reported in patent US20180147183A1, “USE OF R-OXIRACETAM IN PHARMACEUTICAL FIELD” (Chongqing Runze Pharmaceutical Co., Ltd., priority 2015, published 2018).
Several values for one entry are separate records, joined by “and”; a condition that tells them apart may be missing. Identical values can stand only once. Marks after values point to notes of the source that are not given here.

Assays:
[1] = Pharmacokinetics and bioavailability in dogs, plasma determined by LC-MS; type: in vivo, dog
Experimental: A. The Pharmacokinetics of R-Oxiracetam In Vivo and Studies of Bioavailability
4 Determination Methods of Oxiracetam and R-Oxiracetam in Plasma by LC-MS
4.1 Chromatographic Conditions
Mobile phase: methanol: water (5:95)
Column: ZORBAX SB-Aq (2.1×100 mm 3.5μ)
Column temperature: 30° C.;
Injection volume: […] 4.2 Mass Spectrometry Detection Parameters
Mass spectrometry ionization method: electrospray ionization (ESI); ion polarity Positive; scanning mode for multiple reactions monitoring (MRM); scanning time of 100 ms. The ionic reactions used for quantitative analysis were m/z (oxiracetam) m/z 159.0→m/z 113.9 and m/z 143.1→m/z 126.0 (piracetam), respectively.
20 μL of the drug-containing the plasma sample is taken in a 1.5 mL Eppendorf tube. 20 μL of piracetam (20 μg/mL) of the internal standard solution is added, and mixed by the vortex mixer for 30s. Then, 500 μL of acetonitrile is added thereto, vortex shaken for 5 min and centrifugated at 16000 rpm for 10 min. The supernatant from the centrifugation was passed through 1 ml of SPE C 18E column and the filtrate was collected, put into 38° C. constant temperature water bath and dried by nitrogen gas. 300 μL of mobile phase was dissolved and the injection volume was 10 μL.
20 μL of blank dog plasma was added into the working solution prepared from the oxiracetam standard. The concentrations of oxiracetam in the plasma were 0.167, 0.33, 0.37, 1.33, 2.67, 4.0, 6.67, 13.33 and 26.67 μg/mL, respectively. A sample was made for each concentration respectively according to the procedures“4.4 Extraction of plasma samples”. The ratio of the peak area (As) of oxiracetam to the peak area (Ai) of the internal standard piracetam (f=As/Ai) were calculated, and perform linear regression using the concentration (C) to the ratio (f). The weight parameter 1/x, and the oxiracetam regression equation: y=5.2117X−0.76985 (r=0.9970, weight 1/x).
20 μL of blank dog plasma was added into the working solution prepared from the R-oxiracetam standard. The concentrations of R-oxiracetam in the plasma were 0.167, 0.33, 0.37, 1.33, 2.67, 4.0, 6.67, 13.33 and 26.67 μg/mL, respectively. A sample was made for each concentration respectively according to the procedures “4.4 Extraction of plasma samples”. The ratio of the peak area (As) of R-oxiracetam to the peak area (Ai) of the internal standard piracetam (f=As/Ai) were calculated, and perform linear regression using the concentration (C) to the ratio (f). The weight parameter 1/x, and the oxiracetam regression equation: y=1.6811X−0.031244(r=0.9949, weight 1/x).

[2] = system: lithium chloride-pilocarpine epilepsy model rat; assay: Lithium chloride-pilocarpine rat epilepsy model, prophylactic administration; type: in vivo, SD rats; conditions: 10 rats; for mortality rate: within 1 to 7 days after modeling
Description: Stages: epileptic seizures evaluation are categorized by Racine Stages
Stage 0: no signs of any seizure;
Stage I: staring, head and face slightly trembling;
Stage II: head nodding or wet dog-like shaking;
Stage III: forelimb limit convulsions;
Stage IV: full-body ankylosing convulsions with a standing hind limb;
Stage V: full-body ankylosing clonic seizures with standing with fell;
Partial epilepsy seizure occurs when any one of Stage Ito Stage III appears;
Generalized epilepsy seizure occurs when Stage IV or Stage V appears;
Status epilepticus (SE) occurs when Stage IV or Stage V lasts 30 minutes.
The rat epilepsy models were treated with lithium chloride-pilocarpine and used levetiracetam as positive control. The duration of acute seizures of lithium chloride-pilocarpine epilepsy model rat was selected as the observation time, and prophylactic administration was used.
Animals were randomly divided into 4 groups, 10/group. Levetiracetam was selected as a positive control, 1.5 times of clinical dose were chosen, that is, 150 mg/kg. The clinical dose of an adult is 800 mg/times, twice daily, that is, 1600 mg/60 kg, 26.7 mg/kg. The dose of a rat is converted to 160 mg/kg according to body surface area. R-oxiracetam and levorotatory oxiracetam were selected half of the dose, that is, 80 mg/kg, and 1.5 times is 120 mg/kg. The dose was 1 ml/100 g, and the rats were treated with continuous administration for 7 days. As levetiracetam administration of 1.3 h (80 min), the plasma concentration peak, so we choose the last 80 minutes after the last administration of modeling. As administration of levetiracetam for 1.3 h (80 min), the plasma concentration peak was reached, so each group was selected after the last 80 minutes after the start of modeling.
Modeling method: After several previous test, the following modeling method was chosen: Animal ip. Lithium chloride 3 mmol/kg (1.5 ml/L) 127 mg/kg (12.7 mg/ml, 1 ml/100 g body weight), 24 h, 37.5 mg/kg pilocarpine three times ip. mg/kg (2.5 mg/ml, 0.5 ml/100 g body weight) at intervals of 10 minutes. […]

[3] = cited from earlier work
[4] = system: Pentetrazol (PTZ) ignited rat epilepsy model; assay: Pentetrazol (PTZ)-ignited rat epilepsy model; type: in vivo, SD rats; conditions: for Seizure latency (X ± SD) / occurrence rates of stage IV or above seizures: 500 mg/kg daily
Experimental: Rats were injected intraperitoneally with PTZ at a dose of 35 mg/kg (7 mg/ml, 0.5 ml/100 g body weight) for sub-convulsions three times weekly. The animals are weighed before each ip, and observed for behavioral changes after ip. within 1-2 h. Behavioral scoring was carried out according to the revised Racine score. Three consecutive occurrences of seizures of stage IV and above indicate successful ignition.
The animals successfully ignited were chosen to be grouped. The animals were randomly divided into 4 groups, 8-10/group. […] 3 times of clinical dose were chosen, that is, 500 mg/kg. […] The dosage is 1 ml/100 g, continuous intragastrical administration of 10 days. Specific dose settings are as follows:
PTZ 35 mg/kg. The animals are observed for behavioral changes within 2 h. Behavioral scoring was carried out according to the revised Racine score, continuous administration for 10 days, grading standards as mentioned above.
The seizures were recorded daily ip PTZ within 2 h. The seizure levels, latencies, mortality were recorded, and compared with the model control group.

[5] = 150 mg/kg for 7 days before modeling
[6] = 120 mg/kg for 7 days before modeling

In the case of NC(=O)CN1CC(O)CC1=O (racemic) [oxiracetam], the “Concentration in dog blood C” value ([1]; Time 0 h, individual dogs, one table per dog) is reported as 0 ng/mL, the “Concentration in dog blood C” value ([1]; Time 0.25 h, individual dogs, one table per dog) is reported as 5123 ng/mL and -4948 ng/mL and 7540 ng/mL and -4135 ng/mL and 5092 ng/mL and the “Concentration in dog blood C” value ([1]; Time 0.5 h, individual dogs, one table per dog) is reported as 41650 ng/mL and 36440 ng/mL and 42030 ng/mL and 41740 ng/mL and 42350 ng/mL. For the same molecule, the “Concentration in dog blood C” value ([1]; Time 1 h, individual dogs, one table per dog) was 106427.1 ng/mL and 101410.1 ng/mL and 79361 ng/mL and 58870 ng/mL and 139963.8 ng/mL and 290065.6 ng/mL, the “Concentration in dog blood C” value ([1]; Time 1.25 h, individual dogs, one table per dog) was 104196 ng/mL and 77730 ng/mL and 107177.3 ng/mL and 68450 ng/mL and 302273 ng/mL and 142365.9 ng/mL and the “Concentration in dog blood C” value ([1]; Time 1.5 h, individual dogs, one table per dog) was 122326.7 ng/mL and 104856.7 ng/mL and 96860 ng/mL and 192364.2 ng/mL and 186435.5 ng/mL. The “Concentration in dog blood C” value ([1]; Time 2 h, individual dogs, one table per dog) was 161110.6 ng/mL and 146146.6 ng/mL and 100650 ng/mL and 207535.1 ng/mL and 137414 ng/mL and 228058.3 ng/mL, the “Concentration in dog blood C” value ([1]; Time 4 h, individual dogs, one table per dog) was 52390 ng/mL and 40540 ng/mL and 28940 ng/mL and 42680 ng/mL and 21070 ng/mL and 33010 ng/mL and the “Concentration in dog blood C” value ([1]; Time 6 h, individual dogs, one table per dog) was 8396 ng/mL and 4367 ng/mL and 4934 ng/mL and 7743 ng/mL and 29760 ng/mL and 8301 ng/mL. The “Concentration in dog blood C” value ([1]; Time 8 h, individual dogs, one table per dog) was -3894 ng/mL and -4318 ng/mL and -4781 ng/mL and -745.6 ng/mL and -465.7 ng/mL, the “Concentration in dog blood C” value ([1]; Time 12 h, individual dogs, one table per dog) was -4730.8 ng/mL and -4338 ng/mL and -8257 ng/mL and -2959 ng/mL and -6329 ng/mL and -958.4 ng/mL and the “Concentration in dog blood C” value ([1]; Time 24 h, individual dogs, one table per dog) was 0 ng/mL and 21660 ng/mL. It also gave a concentration at 0 h ([1]; dog, plasma, Time 0 h, individual dogs, one table per dog, read-out: Concentration in dog blood C) of 0 ng/mL, a concentration at 0.25 h ([1]; dog, plasma, Time 0.25 h, individual dogs, one table per dog, read-out: Concentration in dog blood C) of 4890 ng/mL and a concentration at 0.5 h ([1]; dog, plasma, Time 0.5 h, individual dogs, one table per dog, read-out: Concentration in dog blood C) of 28200 ng/mL. For the same molecule, the concentration at 1.5 h ([1]; dog, plasma, Time 1.5 h, individual dogs, one table per dog, read-out: Concentration in dog blood C) was 148000 ng/mL, the concentration at 8 h ([1]; dog, plasma, Time 8 h, individual dogs, one table per dog, read-out: Concentration in dog blood C) was 3120 ng/mL and the Cmax ([1]; dog, plasma, dogs, mean ± SD) was 202000 ± 79500 ng/mL.

With CC[C@@H](C(N)=O)N1CCCC1=O [Levetiracetam] the “Latency Stage I” value [2, 5] was 17.6 ± 4.1 min, the “Latency Stage II” value [2, 5] was 22.6 ± 5.8 min and the “Latency Stage III” value [2, 5] was 34.6 ± 9.4 min. For the same molecule, the “Latency Stage IV” value [2, 5] was 33.6 ± 8.3 min, the “Latency Stage V” value [2, 5] was 74.3 ± 24.3 min and the “Number of Deaths” value [2, 5] was 5. For the same molecule, the “Number of SE Animals” value [2, 5] was 7, the “Number of seizures Stage I” value [2, 5] was 1.8 ± 0.8 times and the “Number of seizures Stage II” value [2, 5] was 4.4 ± 3.7 times. For the same molecule, the “Number of seizures Stage III” value [2, 5] was 3.6 ± 2.3 times, the “Occurrence rate Stage I” value [2, 5] was 10% and the “Occurrence rate Stage II” value [2, 5] was 9%. The “Occurrence rate Stage III” value [2, 5] was 8%, the “Occurrence rate Stage IV” value [2, 5] was 7% and the “Occurrence rate Stage V” value [2, 5] was 7%. For the same molecule, the “duration Stage IV” value [2, 5] was 23.3 ± 6.6 min, the “duration Stage V” value [2, 5] was 63.3 ± 19.0 min and the mortality rate [2, 5] was 50%. For the same molecule, the “time of plasma concentration peak after administration” value ([3]; in vivo) was 1.3 h.

In the case of NC(=O)CN1C[C@@H](O)CC1=O [S-oxiracetam], the “Latency Stage I” value [2, 6] is reported as 16.9 ± 5.4 min, the “Latency Stage II” value [2, 6] is reported as 26.7 ± 6.5 min and the “Latency Stage III” value [2, 6] is reported as 35.4 ± 5.8 min. For the same molecule, the “Latency Stage IV” value [2, 6] was 37.8 ± 7.4 min, the “Latency Stage V” value [2, 6] was 64.5 ± 23.2 min and the “Number of Deaths” value [2, 6] was 3. For the same molecule, the “Number of SE Animals” value [2, 6] was 4, the “Number of seizures Stage I” value [2, 6] was 2.2 ± 1.0 times and the “Number of seizures Stage II” value [2, 6] was 5.2 ± 3.1 times. For the same molecule, the “Number of seizures Stage III” value [2, 6] was 5.6 ± 4.2 times, the “Occurrence rate Stage I” value [2, 6] was 10% and the “Occurrence rate Stage II” value [2, 6] was 10%. For the same molecule, the “Occurrence rate Stage III” value [2, 6] was 5%, the “Occurrence rate Stage IV” value [2, 6] was 4% and the “Occurrence rate Stage V” value [2, 6] was 4%. The “duration Stage IV” value [2, 6] was 27.5 ± 12.1 min, the “duration Stage V” value [2, 6] was 79.8 ± 29.5 min and the mortality rate [2, 6] was 30%.

For CCCC(CCC)C(=O)[O-].[Na+] [Sodium valproate, reference compound], the “Seizure latency (X ± SD)” value ([4]; D1) was 4.00 ± 1.41 m, the “occurrence rates of stage IV or above seizures” value (shortened to “occurrence rates”) ([4]; D1) was 4/6 (66.7) % and the “Seizure latency (X ± SD)” value ([4]; D2) was 5.67 ± 2.25 m. The “occurrence rates” value ([4]; D2) was 3/6(50.0) %, the “Seizure latency (X ± SD)” value ([4]; D3) was 5.67 ± 1.37 m and the “occurrence rates” value ([4]; D3) was 3/6 (50.0) %. The “Seizure latency (X ± SD)” value ([4]; D4) was 6.33 ± 1.63 m, the “occurrence rates” value ([4]; D4) was 2/6 (33.3) % and the “occurrence rates” value ([4]; D5) was 2/6 (33.3) %. The “occurrence rates” value ([4]; D6) was 2/6 (33.3) %, the “occurrence rates” value ([4]; D7) was 1/6* (16.7) % and the “occurrence rates” value ([4]; D8) was 0/6** (0) %. The “occurrence rates” value ([4]; D9) was 1/6 (16.7) %, the “Seizure latency (X ± SD)” value ([4]; D10) was 8.33 ± 0.82 m and the “occurrence rates” value ([4]; D10) was 0/6* (0) %. The mortality rate ([4]; 500 mg/kg intragastric, 10 days) was 0%, the “Numbers of deaths (Number)” value ([4]; 500 mg/kg intragastric, 10 days, 6 animals) was 0 and the bioavailability ([3]; oral administration) was about 100%.
